Source: US10413583B2, “Synthetic substrates for enzymes that catalyze reactions of modified cysteines and related methods” (The University of Chicago, priority 2016, dated 2019)

Test system: HEK293T cells
Assay: Live cell fluorescence imaging and flow cytometry of DPP-2 and DPP-3 in HEK293T cells
Assay type: cell-based, human
Conditions: for effect of inhibitor on DPP-3 signal: 1 μM PalmB, 1 μM ML348, 1 or 5 μM ML349 (FIGS. 10, 11)
Experimental: HEK293T (650,000 cells per dish) cells were plated with 1.5 mL of Dulbecco's Modified Eagle Medium (DMEM) (High Glucose, 10% fetal bovine serum (FBS)) in a 35 mm glass bottom dish (D35-10-1.5-N; Cellvis, Mountain View, Calif., United States of America) 24 hrs prior to imaging. 30 min before the addition of the DPP probe, the cell culture media was removed and cells were washed with 1 mL of Delbecco's phosphate-buffered saline (DPBS). The media was then replaced with 1 mL of DMEM containing 1 μM Hoechst 33342 and either 0.1% DMSO carrier as a control, 1 or 2 μM Palm B, 0.1, 1.0, or 5 μM ML348, and incubated for 30 min at 37° C. and 5% CO2. The media was removed, the cells were washed with 1 mL of Live Cell Imaging Solution (Thermo Fisher Scientific, Waltham, Mass., United States of America), and 1 mL of 1 μM DPP-2 or DPP-3 in Live Cell Imaging Solution was added to each plate. For ML348 0.1, 1.0, or 5 μM was added along with DPP-2 or DPP-3. After incubation for 15 min at 37° C. and 5% CO2, images were obtained on an inverted epi-fluorescence microscope (Olympus IX83; Olympus Corporation, Tokyo, Japan) attached with EMCCD camera (Photometrics EVOLVE™ Delta; Photometrics, Tucson, Ariz., United States of America) with 40× oil objective (N/A 1.3) for DPP-2 (excitation filter 500/20, dichroic chroma 89007, emission filter 535/30, exposure time 200 ms, EM gain 25), Hoechst 33342: (excitation filter 402/15, emission filter 455/50, dichroic chroma 89013, exposure time 30 ms, EM gain 25), and brightfield (exposure time 5 ms, EM gain 5), and for DPP-3 (exposure time 500 ms, EM gain 150), Hoechst 33342: (exposure time 30 ms, EM gain 25), and brightfield (exposure time 20 ms, EM gain 5). Analyses were performed in ImageJ. For data analysis, the average fluorescence intensity per image in each experimental condition was obtained by selecting regions of interest (ROIs) in the brightfield image. For display, the data were normalized to the average fluorescence intensity of the control conditions. Each experiment was repeated at least three separate times with identical results.
Cells were plated on a 10 cm dish with 10 mL of DMEM/High Glucose (10% FBS, 1% P/S, L-Glutamine, Sodium pyruvate) 36-48 hours prior to the day of experiment and maintained at 37° C., 5% CO2 so as to obtain 80-90% confluency. Cells were washed with DPBS and trypsinized with 1 mL 0.05% Trypsin. 5 mL of DMEM/High Glucose (10% FBS, L-Glutamine, Sodium pyruvate) was added and cells were spun down at 1200 rpm for 3 min. Media was discarded and cells were resuspended in 5 mL of Live Cell Imaging Solution and again spun down at 1200 rpm for 3 min. The cells pellets obtained were resuspended in 3-5 mL of Live Cell Imaging Solution and divided into 500 μL aliquots. The aliquots were treated with either 0.2% DMSO carrier or 1 μM of PalmB/ML348 or 1 μM/5 μM of ML349 inhibitor. After 30 min of incubation at room temperature, 1 μL of 2.5 mM DPP-3 in DMSO was added to each aliquot for a final concentration of 5 μM, and the solutions were mixed. After 5 min incubation at room temperature, fluorescence signal in FITC channel was measured for 10000 cells (5000 for HeLa experiments) on a LSR-Fortessa 4-15 HTS (BD digital instrument, 488 nm laser with 530/30 nm filter for FITC; BD, Franklin Lakes, N.J., United States of America). For analyzing DPP2 in HEK293T cells, the aliquots were treated with either 0.2% DMSO carrier or 2 μM of PalmB, 5 or 20 μM of ML348/ML349 and then analyzed by the protocol as mentioned above. Data was analyzed by FlowJo software version 10.0.8. For comparison of A431 starved versus non-starved, parallel 10 cm dishes of A431 cells were plated in 10 mL of DMEM (high glucose, 10% FBS, 1% P/S), and grown for 36 h. The growth media was removed, and replaced by 10 mL of either DMEM (High glucose) with 10% FBS to maintain “growth” conditions, or DMEM (High glucose) without FBS respectively for “starvation” conditions, and incubated for 14 h. […]

Row | SMILES | effect of inhibitor on DPP-3 signal | effect of inhibitor on DPP-2 fluorescent signal (2 μM inhibitor) | effect of inhibitor on DPP-2 fluorescent signal (5 μM inhibitor)
1 | CCCCCCCCCC[C@@H]1C(=O)O[C@H]1CCc1ccc(OC)c(OC)c1 [PalmB, palmostatin B] | lower amounts of PalmB or ML348 were needed to perturb the signal | perturbed | 
2 | COc1ccc(N2CCN(C(=O)c3cc4c(s3)-c3ccccc3S(=O)(=O)C4)CC2)cc1 [ML349] | not substantially perturbed |  | perturbed
3 | O=C(CN1CCN(C(=O)c2ccco2)CC1)Nc1cc(C(F)(F)F)ccc1Cl [ML348] | lower amounts of PalmB or ML348 were needed to perturb the signal |  | perturbed
